Laboratory results reported in patent publication US20190177284A1, “TETRAZOLYL-CONTAINING CYCLOPROPANECARBOXAMIDES” (Bayer Pharma Aktiengesellschaft, priority 2017, published 2019).

Biological target: T1, human Bradykinin B1 receptor (Homo sapiens, UniProt P46663)
T1 construct: host or cells: CHO-K1
T1 sequence (P46663 1-353): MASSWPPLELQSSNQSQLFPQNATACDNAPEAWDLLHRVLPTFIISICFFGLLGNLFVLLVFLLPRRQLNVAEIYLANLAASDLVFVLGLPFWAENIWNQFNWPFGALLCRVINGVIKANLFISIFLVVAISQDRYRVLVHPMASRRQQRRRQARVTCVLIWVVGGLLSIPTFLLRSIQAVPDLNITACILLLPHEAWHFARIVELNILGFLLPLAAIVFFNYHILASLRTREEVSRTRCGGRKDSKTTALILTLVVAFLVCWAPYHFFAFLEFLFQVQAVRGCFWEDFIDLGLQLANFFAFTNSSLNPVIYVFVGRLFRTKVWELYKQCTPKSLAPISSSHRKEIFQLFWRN
Experiment: Calcium flux Assay (FLIPR) with cells expressing human Bradykinin B1 receptor (hB1)
Format: cell-based
Conditions: absence of 0.1% BSA in assay buffer; CHO-K1 cell line expressing human B1 receptor; agonist Lys-(Des-Arg)-Bradykinin; read-out: hB1 free IC50
Method: The potency to inhibit the Bradykinin B1 receptor was determined for the compound examples of this invention in a cell-based fluorescent calcium-mobilisation assay. The assay measures the ability of compound examples to inhibit Bradykinin B1 receptor agonist-induced increase of intracellular free Ca^2+ in the cell line expressing Bradykinin B1 receptor. Specifically, calcium indicator-loaded cells are pre-incubated in the absence or presence of different concentrations of compound examples followed by the stimulation with a selective Bradykinin B1 receptor agonist peptide. The change of the intracellular Ca^2+ concentration is monitored with a fluorescent plate reader FLIPR^TETRA®
Calcium flux Assays (FLIPR) with cells expressing human Bradykinin B1 receptor (hB1) Calcium flux Assay (FLIPR) with recombinant cells for Bradykinin B1 receptor antagonist, either in the presence (hB1 IC50) or absence (hB1 free IC50) of 0.1% Bovine Serum Albumin (BSA) in assay buffer.
CHO—K1 cell line expressing human B1 receptor was purchased from Euroscreen (Gosselies, Belgium, with reference name hB1-D1). The cells were grown in Nutrient Mixture Ham's F12 (Sigma) containing 10% Foetal bovine serum (Sigma) and 400 μg/mL G418 (Sigma), 5 μg/mL puromycin (Sigma).
For the calcium flux assay, 80% confluent cells were detached from the culture vessels with Versene (Gibco), and seeded into 384-well plates (Cell binding Surface; Corning, N.Y.; #3683) at a density of 15,000 cells per well. Cells were seeded in a volume of 50 μL in medium without antibiotics and incubated overnight in a humidified atmosphere with 5% CO2 at 37° C. […] The calcium indicator loaded cells were incubated at 37° C. for 2 hrs. Extracellular dye was then removed and each well was filled with 45 μL of assay buffer. Cell plates were kept in dark until used. Example compounds were assayed at 8 concentrations in triplicate. Serial 10-fold dilutions in 100% DMSO were made at a 100-times higher concentration than the final concentration, and then diluted 1:10 in assay buffer. 5 μL of each diluted compound was added to the well of cell plates (yielding final concentration with 1% DMSO), and incubated for 30 min at 28° C. before the addition of B1 receptor agonist on the FLIPR instrument.
Agonist plates contained the agonist Lys-(Des-Arg)-Bradykinin (Bachem, Brackley) at 3.5×EC90 in assay buffer with 1% DMSO. The addition of agonist 20 μl per well to the assay plate was carried out on the FLIPR instrument while continuously monitoring Ca^2+-dependent fluorescence at 538 nm. A peptide antagonist Lys-(Des-Arg-Leu)-Bradykinin (Bachem, Brackley) at 20 μM was used to determine the full inhibition as control.
Peak fluorescence was used to determine the response to agonist obtained at each concentration of example compound by the following equation:
% Response=100*(RFU(example compound)−RFU(control))/(RFU(DMSO)−RFU(control)) • RFU means relative fluorescence units. • Control means full inhibition by the peptide antagonist Lys-(Des-Arg-Leu)-Bradykinin at 20
The response values were plotted against the logarithm of the example compound concentrations. The example compounds were tested in triplicates per plate and mean values were plotted in Excel XLfit to determine IC50 values, percentage of maximal inhibition and the Hill slopes.
IC50 values of example compounds in Calcium flux Assay (FLIPR) as shown in table 1 were determined according to the protocol described above in the absence of 0.1% BSA in assay buffer.

IC50 | Structure (SMILES)
10 nM | CCC(C)OC(=O)c1ccc(NC(=O)C2(c3cccc(Cl)c3)CC2)cc1-c1nnn[nH]1 (racemic) [Example 3, sec-Butyl 4-({[1-(3-chlorophenyl)cyclopropyl]carbonyl}amino)-2-(1H-tetrazol-5-yl)benzoate]
21 nM | CCC(C)OC(=O)c1ccc(NC(=O)C2(c3ccc(F)c(F)c3)CC2)cc1-c1nnn[nH]1 (racemic) [Example 8, sec-Butyl 4-({[1-(3,4-difluorophenyl)cyclopropyl]carbonyl}amino)-2-(1H-tetrazol-5-yl)benzoate]
17 nM | CCC(C)OC(=O)c1ccc(NC(=O)C2(c3ccc(C)cc3F)CC2)cc1-c1nnn[nH]1 (racemic) [Example 9, sec-Butyl 4-({[1-(2-fluoro-4-methylphenyl)cycloporopyl]carbonyl}amino)-2-(1H-tetrazol-5-yl)benzoate]
4 nM | CCC(C)OC(=O)c1ccc(NC(=O)C2(c3ccc(C(F)(F)F)cc3F)CC2)cc1-c1nnn[nH]1 (racemic) [Example 10, sec-Butyl 4-[({1-[2-fluoro-4-(trifluoromethyl)phenyl]cyclopropyl}carbonyl)amino]-2-(1H-tetrazol-5-yl)benzoate]
3 nM | CCC(C)OC(=O)c1ccc(NC(=O)C2(c3ccc(OC(F)(F)F)cc3F)CC2)cc1-c1nnn[nH]1 (racemic) [Example 11, sec-Butyl 4-[({1-[2-fluoro-4-(trifluoromethoxy)phenyl]cyclopropyl}carbonyl)amino]-2-(1H-tetrazol-5-yl)benzoate]
47 nM | Cc1cccc([C@@H]2C[C@H]2C(=O)Nc2ccc(C(=O)OC3CCCC3)c(-c3nnn[nH]3)c2)c1 (racemic) [Example 13, Cyclopentyl-4-({[2-(3-methylphenyl)cyclopropyl]carbonyl}amino)-2-(1H-tetrazol-5-yl)benzoate]
7 nM | O=C(OC1CCOC1)c1ccc(NC(=O)C2(c3ccc(C(F)(F)F)cc3F)CC2)cc1-c1nnn[nH]1 (racemic) [Example 18, Tetrahydrofuran-3-yl 4-[({1-[2-fluoro-4-(trifluoromethyl)phenyl]cyclopropyl}carbonyl)amino]-2-(1H-tetrazol-5-yl)benzoate]
9 nM | COC(C)COC(=O)c1ccc(NC(=O)C2(c3ccc(C(F)(F)F)cc3F)CC2)cc1-c1nnn[nH]1 (racemic) [Example 31, 2-Methoxypropyl 4-[({1-[2-fluoro-4-(trifluoromethyl)phenyl]cyclopropyl}carbonyl)amino]-2-(1H-tetrazol-5-yl)benzoate]
13 nM | COCC(C)OC(=O)c1ccc(NC(=O)C2(c3ccc(C(F)(F)F)cc3F)CC2)cc1-c1nnn[nH]1 (racemic) [Example 32, 1-Methoxypropan-2-yl 4-[({1-[2-fluoro-4-(trifluoromethyl)phenyl]cyclopropyl}carbonyl)amino]-2-(1H-tetrazol-5-yl)benzoate]
341 nM | COC1CCCN(C(=O)c2ccc(NC(=O)C3(c4ccc(C(F)(F)F)cc4F)CC3)cc2-c2nnn[nH]2)C1 (racemic) [Example 35, 1-[2-Fluoro-4-(trifluoromethyl)phenyl]-N-{4-[(3-methoxypiperidin-1-yl)carbonyl]-3-(1H-tetrazol-5-yl)phenyl}cyclopropanecarboxamide]
1850 nM | CCC(C)N(C)C(=O)c1ccc(NC(=O)C2(c3ccc(C(F)(F)F)cc3F)CC2)cc1-c1nnn[nH]1 (single isomer, unassigned) [Example 58, N-sec-butyl-4-[({1-[2-fluoro-4-(trifluoromethyl)phenyl]cyclopropyl}carbonyl)-amino]-N-methyl-2-(1H-tetrazol-5-yl)benzamide]
136 nM | CCOC(=O)c1ccc(NC(=O)C2(c3cccc(Cl)c3)CC2)cc1-c1nnn[nH]1 [Example 1, Ethyl 4-({[1-(3-chlorophenyl)cyclopropyl]carbonyl}amino)-2-(1H-tetrazol-5-yl)benzoate]
21 nM | O=C(OC1CCCC1)c1ccc(NC(=O)C2(c3cccc(Cl)c3)CC2)cc1-c1nnn[nH]1 [Example 2, Cyclopentyl 4-({[1-(3-chlorophenyl)cyclopropyl]carbonyl}amino)-2-(1H-tetrazol-5-yl)benzoate]
59 nM | O=C(OC1CCCC1)c1ccc(NC(=O)C2(c3ccc(F)c(F)c3)CC2)cc1-c1nnn[nH]1 [Example 4, Cyclopentyl 4-({[1-(3,4-difluorophenyl)cyclopropyl]carbonyl}amino)-2-(1H-tetrazol-5-yl)benzoate]
25 nM | Cc1ccc(C2(C(=O)Nc3ccc(C(=O)OC4CCCC4)c(-c4nnn[nH]4)c3)CC2)c(F)c1 [Example 5, Cyclopentyl 4-({[1-(2-fluoro-4-methylphenyl)cyclopropyl]carbonyl}amino)-2-(1H-tetrazol-5-yl)benzoate]
9 nM | O=C(OC1CCCC1)c1ccc(NC(=O)C2(c3ccc(C(F)(F)F)cc3F)CC2)cc1-c1nnn[nH]1 [Example 6, Cyclopentyl 4-[({1-[2-fluoro-4-(trifluoromethyl)phenyl]cyclopropyl}carbonyl)amino]-2-(1H-tetrazol-5-yl)benzoate]
5 nM | O=C(OC1CCCC1)c1ccc(NC(=O)C2(c3ccc(OC(F)(F)F)cc3F)CC2)cc1-c1nnn[nH]1 [Example 7, Cyclopentyl 4-[({1-[2-fluoro-4-(trifluoromethoxy)phenyl]cyclopropyl}carbonyl)amino]-2-(1H-tetrazol-5-yl)benzoate]
412 nM | CN(CC1CCCCC1)C(=O)c1ccc(NC(=O)C2(c3ccc(C(F)(F)F)cc3F)CC2)cc1-c1nnn[nH]1 [Example 12, N-(cyclohexylmethyl)-4-[({1-[2-fluoro-4-(trifluoromethyl)phenyl]cyclopropyl}carbonyl)amino]-N-methyl-2-(1H-tetrazol-5-yl)benzamide]
999 nM | CC1(OC(=O)c2ccc(NC(=O)C3(c4ccc(C(F)(F)F)cc4F)CC3)cc2-c2nnn[nH]2)CCCC1 [Example 14, 1-Methylcyclopentyl 4-[({1-[2-fluoro-4-(trifluoromethyl)phenyl]cyclopropyl}-carbonyl)amino]-2-(1H-tetrazol-5-yl)benzoate]
5220 nM | CCC(C)(C)OC(=O)c1ccc(NC(=O)C2(c3ccc(C(F)(F)F)cc3F)CC2)cc1-c1nnn[nH]1 [Example 15, 2-Methylbutan-2-yl 4-[({1-[2-fluoro-4-(trifluoromethyl)phenyl]cyclopropyl}carbonyl)amino]-2-(1H-tetrazol-5-yl)benzoate]
5 nM | O=C(OC1CCCCC1)c1ccc(NC(=O)C2(c3ccc(C(F)(F)F)cc3F)CC2)cc1-c1nnn[nH]1 [Example 16, Cyclohexyl 4-[({1-[2-fluoro-4-(trifluoromethyl)phenyl]cyclopropyl}carbonyl)amino]-2-(1H-tetrazol-5-yl)benzoate]
17 nM | COCCOC(=O)c1ccc(NC(=O)C2(c3ccc(C(F)(F)F)cc3F)CC2)cc1-c1nnn[nH]1 [Example 17, 2-Methoxyethyl 4-[({1-[2-fluoro-4-(trifluoromethyl)phenyl]cyclopropyl}-carbonyl)amino]-2-(1H-tetrazol-5-yl)benzoate]
13 nM | O=C(O[C@H]1CCOC1)c1ccc(NC(=O)C2(c3ccc(C(F)(F)F)cc3F)CC2)cc1-c1nnn[nH]1 [Example 19, (3S)-Tetrahydrofuran-3-yl 4-[({1-[2-fluoro-4-(trifluoromethyl)phenyl]cyclopropyl}carbonyl)amino]-2-(1H-tetrazol-5-yl)benzoate]
